Values after ≈ are worked out from the molar mass of the structure shown.
What was measured:
Assay type in all cases: cell-based
[1] = test system: Staphylococcus aureus ATCC 9144; experiment: Minimum inhibitory concentration (MIC), further microorganisms; conditions: Table 8; * = significant inhibition of growth, but not complete inhibition
Outline: (§1)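 Broth microdilution in DMSO, 1:2 series; inocula adjusted to 1–5×10^6 CFU/ml then diluted 1:100 in CASO broth (bacteria, yeast) or Sabouraud 2% glucose broth (mould). Incubation 48 h at 37° C or 5 days at 28° C; MIC = lowest concentration giving ≦20% growth versus control by OD 620 nm.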

[2] = test system: Candida albicans ATCC 10231; experiment: as above; conditions: Table 8; * = significant inhibition of growth, but not complete inhibition
Outline: as §1

[3] = test system: Aspergillus niger ATCC 6275; experiment: as above; conditions: Table 8; * = significant inhibition of growth, but not complete inhibition
Outline: as §1

[4] = test system: Enterococcus hirae ATCC 10541; experiment: as above; conditions: Table 8; * = significant inhibition of growth, but not complete inhibition
Outline: as §1

[5] = test system: S. epidermidis ATCC 12228; experiment: as above; conditions: Table 8; * = significant inhibition of growth, but not complete inhibition
Outline: as §1

[6] = test system: Salmonella choleraesuis ATCC 10708; experiment: as above; conditions: Table 8
Outline: as §1

[7] = test system: Micrococcus luteus ATCC 9341; experiment: as above; conditions: Table 8; * = significant inhibition of growth, but not complete inhibition
Outline: as §1

[8] = test system: Pseudomonas aeruginosa CIP A-22; experiment: as above; conditions: Table 8
Outline: as §1

[9] = test system: Klebsiella pneumonia ATCC 4352; experiment: as above; conditions: Table 8; * = significant inhibition of growth, but not complete inhibition
Outline: as §1

[10] = test system: Epidermophyton floccosum DSM 10709; experiment: as above; conditions: Table 8; * = significant inhibition of growth, but not complete inhibition
Outline: as §1

[11] = test system: Trichophyton mentagrophytes ATCC 9533; experiment: as above; conditions: Table 8; * = significant inhibition of growth, but not complete inhibition
Outline: as §1

[12] = test system: Escherichia coli NCTC 8196; experiment: Minimum inhibitory concentration (MIC) in microtitre plates; conditions: for Minimum inhibitory concentration (MIC) E. coli: Table 7, 48 hours at 37° C., MIC = ≦20% growth compared to control; for Minimum inhibitory concentration (MIC) E. coli NCTC 8196: Table 8, * = significant inhibition of growth, but not complete inhibition
Outline: (§2)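 Compounds in DMSO, 1:2 dilution series; bacteria at 1–5×10^6 CFU/ml diluted 1:100 in CASO broth. Incubation 48 h at 37° C, growth read as OD 620 nm. MIC is the lowest concentration giving ≤20% growth relative to control; duplicates.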

[13] = test system: Staphylococcus hominis DMS 20328; experiment: as above; conditions: Table 7; 48 hours at 37° C.; MIC = ≦20% growth compared to control
Outline: as §2

SMILES | Minimum inhibitory concentration (MIC) Staphylococcus aureus ATCC 9144 [1] | Minimum inhibitory concentration (MIC) Candida albicans ATCC 10231 [2] | Minimum inhibitory concentration (MIC) Aspergillus niger ATCC 6275 [3] | Minimum inhibitory concentration (MIC) Enterococcus hirae ATCC 10541 [4] [µg/mL] | Minimum inhibitory concentration (MIC) S. epidermidis ATCC 12228 [5] | Minimum inhibitory concentration (MIC) Micrococcus luteus ATCC 9341 [7] | Minimum inhibitory concentration (MIC) Pseudomonas aeruginosa CIP A-22 [8] [µg/mL] | Minimum inhibitory concentration (MIC) Klebsiella pneumonia ATCC 4352 [9] | Minimum inhibitory concentration (MIC) Epidermophyton floccosum DSM 10709 [10] [µg/mL] | Minimum inhibitory concentration (MIC) Trichophyton mentagrophytes ATCC 9533 [11] | Minimum inhibitory concentration (MIC) E. coli [12] [µg/mL] | Minimum inhibitory concentration (MIC) E. coli NCTC 8196 [12] [µg/mL] | Minimum inhibitory concentration (MIC) S. hominis [13] [µg/mL] | Minimum inhibitory concentration (MIC) Salmonella choleraesuis ATCC 10708 [6] [µg/mL]
Cc1nc(-c2ccccn2)nc(NCCCCCCCCCN)c1C(C)C [compound 66] | 60 µg/mL (≈ 162 µM) | >60 µg/mL | >60 µg/mL | >60 | 60 µg/mL (≈ 162 µM) | *30 μg/mL | >60 | >60 µg/mL | >60 | >60 µg/mL | 30 (≈ 81.2 µM) | >60 | 3.75 (≈ 10.1 µM) | >60
CCCCCCCCNc1nc(-c2ccccn2)nc(C)c1C(C)C [compound 69] | 7.5 µg/mL (≈ 22 µM) | 60 µg/mL (≈ 176 µM) | *60 μg/mL | 3.75 (≈ 11 µM) | 7.5 µg/mL (≈ 22 µM) | <3.75 µg/mL | >60 | *60 μg/mL | 15 (≈ 44.1 µM) | *15 μg/mL | 120 (≈ 352 µM) | >60 | 3.75 (≈ 11 µM) | >60
COCCc1cc(NCCCCCCCCN)nc(-c2ccccn2)n1 [compound 77] | >60 µg/mL | >60 µg/mL | >60 µg/mL | >60 | >60 µg/mL | >60 µg/mL | >60 | >60 µg/mL | >60 | >60 µg/mL | 120 (≈ 336 µM) | >60 | 30 (≈ 83.9 µM) | >60
COCCc1cc(NCCCCCCCCCN)nc(-c2ccccn2)n1 [compound 78] | *60 μg/mL | >60 µg/mL | >60 µg/mL | >60 | *60 μg/mL | >60 µg/mL | >60 | >60 µg/mL | >60 | >60 µg/mL | 60 (≈ 161 µM) | >60 | 15 (≈ 40.4 µM) | >60
COCCc1cc(NCCCCCCCCCCCCN)nc(-c2ccccn2)n1 [compound 79] | *60 μg/mL | *30 μg/mL | >60 µg/mL | >60 | 30 µg/mL (≈ 72.5 µM) | 60 µg/mL (≈ 145 µM) | >60 | >60 µg/mL | >60 | >60 µg/mL | 20 (≈ 48.4 µM) | 60 (≈ 145 µM) | 10 (≈ 24.2 µM) | >60
CCCCCCCCCCCNc1nc(-c2ccccn2)nc(C)c1CC [compound 89] | 7.5 µg/mL (≈ 20.3 µM) | 15 µg/mL (≈ 40.7 µM) | 30 µg/mL (≈ 81.4 µM) | 7.5 (≈ 20.3 µM) | 7.5 µg/mL (≈ 20.3 µM) | 1.9 µg/mL (≈ 5.16 µM) | >60 | 60 µg/mL (≈ 163 µM) | 15 (≈ 40.7 µM) | *7.5 μg/mL | >120 | >60 | 3.75 (≈ 10.2 µM) | >60
CCCCCCCCCCCCCCCNc1nc(-c2ccccn2)nc(C)c1CC [compound 90] | *30 μg/mL | *60 μg/mL | >120 µg/mL | 30 (≈ 70.6 µM) | *30 μg/mL | 15 µg/mL (≈ 35.3 µM) | >60 | >60 µg/mL | 60 (≈ 141 µM) | >120 µg/mL | 120 (≈ 283 µM) | >60 | 30 (≈ 70.6 µM) | >60

The next lines start with results.

Minimum inhibitory concentration (MIC) Staphylococcus aureus ATCC 9144 [1] | Minimum inhibitory concentration (MIC) Candida albicans ATCC 10231 [2] | Minimum inhibitory concentration (MIC) Aspergillus niger ATCC 6275 [3] | Minimum inhibitory concentration (MIC) Enterococcus hirae ATCC 10541 [4] [µg/mL] | Minimum inhibitory concentration (MIC) S. epidermidis ATCC 12228 [5] | Minimum inhibitory concentration (MIC) Micrococcus luteus ATCC 9341 [7] | Minimum inhibitory concentration (MIC) Pseudomonas aeruginosa CIP A-22 [8] [µg/mL] | Minimum inhibitory concentration (MIC) Klebsiella pneumonia ATCC 4352 [9] | Minimum inhibitory concentration (MIC) Epidermophyton floccosum DSM 10709 [10] [µg/mL] | Minimum inhibitory concentration (MIC) Trichophyton mentagrophytes ATCC 9533 [11] | Minimum inhibitory concentration (MIC) E. coli [12] [µg/mL] | Minimum inhibitory concentration (MIC) E. coli NCTC 8196 [12] [µg/mL] | Minimum inhibitory concentration (MIC) S. hominis [13] [µg/mL] | SMILES | Minimum inhibitory concentration (MIC) Salmonella choleraesuis ATCC 10708 [6] [µg/mL]
3.75 µg/mL (≈ 11 µM) | 15 µg/mL (≈ 44.1 µM) | *60 μg/mL | 3.75 (≈ 11 µM) | *1.9 μg/mL | <0.5 µg/mL | >120 | 120 µg/mL (≈ 352 µM) | 15 (≈ 44.1 µM) | 15 µg/mL (≈ 44.1 µM) | >120 | >120 | 3.75 (≈ 11 µM) | CCCCCCCCCCCNc1cc(C)nc(-c2ccccn2)n1 [compound 92] | >120
15 µg/mL (≈ 37.8 µM) | *120 μg/mL | >60 µg/mL | 15 (≈ 37.8 µM) | 7.5 µg/mL (≈ 18.9 µM) | 1.9 µg/mL (≈ 4.79 µM) | >120 | >120 µg/mL | >60 | >60 µg/mL | >120 | >120 | 7.5 (≈ 18.9 µM) | CCCCCCCCCCCCCCCNc1cc(C)nc(-c2ccccn2)n1 [compound 93] | >120
1.9 µg/mL (≈ 5.16 µM) | 30 µg/mL (≈ 81.4 µM) | >60 µg/mL | 1.9 (≈ 5.16 µM) | 1.9 µg/mL (≈ 5.16 µM) | <0.5 µg/mL | >120 | 120 µg/mL (≈ 326 µM) | 15 (≈ 40.7 µM) | >60 µg/mL | >120 | 120 (≈ 326 µM) | 3.75 (≈ 10.2 µM) | CCCCCCCCCCCNc1cc(C(C)C)nc(-c2ccccn2)n1 [compound 98] | >120

Reference: US7015228B2, “4-amino-2-(2-pyridyl)pyrimidines as microbicidal active substances” (Ciba Specialty Chemicals Corporation, priority 2001, dated 2006)
